Publication PMC7377239, “Cardiovascular Effects of Polychlorinated Biphenyls and Their Major Metabolites” (Environmental Health Perspectives, 2020)
Like-named read-outs stand apart in the source and are kept apart here.

Assays:
HUVECs = assay: High-content imaging cytotoxicity in HUVECs, 24 h; format: cell-based, human; conditions: Homo sapiens, HUVEC, 24 h, HUVECs; for viability at 0.01 µM / activity at 0.01 µM / viability at 0.1 µM / activity at 0.1 µM / viability at 1 µM / activity at 1 µM / viability at 10 µM / activity at 10 µM / viability at 100 µM / activity at 100 µM: 0.00 µM = 100.00; for viability at 0.1 µM / activity at 0.1 µM: 0.10 µM; for minimal effective concentration: top concentration 100.00 µM
In short: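 Point-of-departure values derive from four-parameter logistic fits of vehicle-normalized imaging phenotypes (Hoechst 33342, MitoTracker Orange, calcein AM). The fits follow 24 h exposure of HUVEC monolayers at 37°C and 5% CO2, with a top tested concentration of 100μM.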

[1] = system: iCell cardiomyocytes (human iPSC-derived cardiomyocytes); assay: High-content imaging of cytotoxicity and mitochondrial integrity in iPSC-CMs; format: cell-based; conditions: Homo sapiens; for viability at 0.01 µM / activity at 0.01 µM / viability at 0.1 µM / activity at 0.1 µM / viability at 1 µM / activity at 1 µM / viability at 10 µM / activity at 10 µM / viability at 100 µM / activity at 100 µM: Cardiomyocyte, 0.00 µM = 100.00; for viability at 0.1 µM / activity at 0.1 µM: 0.10 µM; for minimal effective concentration: iPSC-CM
In short: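 Human iPSC-derived cardiomyocytes were seeded on gelatin-coated 384-well plates at 5,000 cells per well and maintained for 12 d. Test chemicals were added as 10μL of 5× solutions to final concentrations of 0.01 to 100μM. Cells were stained with Hoechst 33342 and MitoTracker™ Orange, fixed in formaldehyde, and imaged by confocal high-content microscopy at 10× magnification.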

[2] = 24 hr, read-out: huvec.cyto.24hr
[3] = 24 hr, read-out: huvec.mito.24hr
[4] = 24 hr, read-out: huvec.mitoint.24hr
[5] = 24 hr, read-out: huvec.nma.24hr
[6] = 24 hrs, read-out: huvec.tc.24hrs

## Clc1ccc(-c2ccccc2)cc1 [PCB3]
HUVECs; [2]
  viability at 0.01 µM: 83.5%
  viability at 0.1 µM: 87.1%
  viability at 1 µM: 73.5%
  viability at 10 µM: 87.9%
  viability at 100 µM: 56%
HUVECs; [3]
  activity at 0.01 µM: 83.3%
  activity at 0.1 µM: 86.7%
  activity at 1 µM: 72.5%
  activity at 10 µM: 85.4%
  activity at 100 µM: 44.6%
HUVECs; [4]
  activity at 0.01 µM: 93.5%
  activity at 0.1 µM: 118%
  activity at 1 µM: 97.5%
  activity at 10 µM: 76%
  activity at 100 µM: 51%
HUVECs; [5]
  activity at 0.01 µM: 94.7%
  activity at 0.1 µM: 93%
  activity at 1 µM: 93.1%
  activity at 10 µM: 85.2%
  activity at 100 µM: 71%
HUVECs; 24 hr, read-out: huvec.cyto.24hr POD
  minimal effective concentration: 100 µM
HUVECs; 24 hr, read-out: huvec.mito.24hr POD
  minimal effective concentration: 100 µM
HUVECs; 24 hr, read-out: huvec.mitoint.24hr POD
  minimal effective concentration: 100 µM
HUVECs; 24 hr, read-out: huvec.nma.24hr POD
  minimal effective concentration: 100 µM
HUVECs; [6]
  viability at 0.01 µM: 83.5%
  viability at 0.1 µM: 87.1%
  viability at 1 µM: 73.7%
  viability at 10 µM: 88%
  viability at 100 µM: 56.1%
HUVECs; 24 hrs, read-out: huvec.tc.24hrs POD
  minimal effective concentration: 100 µM
[1]; 1.5 h, read-out: cm.cam.90min
  viability at 0.01 µM: 104%
  viability at 0.1 µM: 97.8%
  viability at 1 µM: 98.5%
  viability at 10 µM: 99.9%
  viability at 100 µM: 40.3%
[1]; 1.5 h, read-out: cm.mii.90min
  activity at 0.01 µM: 107%
  activity at 0.1 µM: 103%
  activity at 1 µM: 104%
  activity at 10 µM: 109%
  activity at 100 µM: 141%
[1]; 1.5 h, read-out: cm.mito.90min
  activity at 0.01 µM: 104%
  activity at 0.1 µM: 97.7%
  activity at 1 µM: 98.3%
  activity at 10 µM: 99.6%
  activity at 100 µM: 39.3%
[1]; 1.5 h, read-out: cm.tc.90min
  viability at 0.01 µM: 104%
  viability at 0.1 µM: 97.7%
  viability at 1 µM: 98.2%
  viability at 10 µM: 99.5%
  viability at 100 µM: 40.4%
[1]; 24 h, read-out: cm.cam.24hrs
  viability at 0.01 µM: 87.6%
  viability at 0.1 µM: 96%
  viability at 1 µM: 95.4%
  viability at 10 µM: 91.4%
  viability at 100 µM: 1.51%
[1]; 24 h, read-out: cm.mii.24hrs
  activity at 0.01 µM: 109%
  activity at 0.1 µM: 101%
  activity at 1 µM: 97.1%
  activity at 10 µM: 87.2%
  activity at 100 µM: 32%
[1]; 24 h, read-out: cm.mito.24hrs
  activity at 0.01 µM: 84.7%
  activity at 0.1 µM: 93.1%
  activity at 1 µM: 91%
  activity at 10 µM: 87.8%
  activity at 100 µM: 0.72%
[1]; 24 h, read-out: cm.tc.24hrs
  viability at 0.01 µM: 87.2%
  viability at 0.1 µM: 95.9%
  viability at 1 µM: 95.3%
  viability at 10 µM: 90.8%
  viability at 100 µM: 1.49%
[1]; 1.5 h, read-out: cm.cam.90min POD
  minimal effective concentration: 24.9 µM
[1]; 1.5 h, read-out: cm.mii.90min POD
  minimal effective concentration: 6.86 µM
[1]; 1.5 h, read-out: cm.mito.90min POD
  minimal effective concentration: 21.2 µM
[1]; 1.5 h, read-out: cm.tc.90min POD
  minimal effective concentration: 20 µM
[1]; 24 h, read-out: cm.cam.24hrs POD
  minimal effective concentration: 7.4 µM
[1]; 24 h, read-out: cm.mii.24hrs POD
  minimal effective concentration: 10.9 µM
[1]; 24 h, read-out: cm.mito.24hrs POD
  minimal effective concentration: 6.67 µM
[1]; 24 h, read-out: cm.tc.24hrs POD
  minimal effective concentration: 6.97 µM
